Assay type in all cases: biochemical
The target of one test is T1, NUAK2 (h) (Homo sapiens, UniProt Q9H093).
T1 construct: This assay was done radiometrically using full-length, recombinant enzyme; purchased Eurofins
T1 sequence (Q9H093 1-628): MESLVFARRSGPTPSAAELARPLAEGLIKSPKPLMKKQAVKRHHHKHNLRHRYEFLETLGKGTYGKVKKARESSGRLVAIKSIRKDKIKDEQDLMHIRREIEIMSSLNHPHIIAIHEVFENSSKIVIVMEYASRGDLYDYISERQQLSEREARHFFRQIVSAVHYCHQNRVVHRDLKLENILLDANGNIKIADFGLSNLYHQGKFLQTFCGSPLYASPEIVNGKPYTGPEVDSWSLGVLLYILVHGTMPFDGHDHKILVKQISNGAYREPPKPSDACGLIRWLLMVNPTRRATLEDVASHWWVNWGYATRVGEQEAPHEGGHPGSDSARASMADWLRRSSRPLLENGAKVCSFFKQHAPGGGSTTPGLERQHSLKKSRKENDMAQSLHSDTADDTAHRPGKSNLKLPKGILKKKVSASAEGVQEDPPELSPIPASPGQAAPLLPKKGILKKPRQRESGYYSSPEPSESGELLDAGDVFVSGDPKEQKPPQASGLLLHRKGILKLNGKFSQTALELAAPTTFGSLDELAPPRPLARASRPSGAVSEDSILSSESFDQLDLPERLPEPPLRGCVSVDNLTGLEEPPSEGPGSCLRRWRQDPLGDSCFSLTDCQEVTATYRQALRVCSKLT
Briefly: NUAK2 enzymatic assay (radiometric, Eurofins). Conditions: full-length recombinant enzyme. Summed up: (§1)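 Full-length recombinant NUAK2 incubated 40 min at room temperature in 8 mM MOPS pH 7.0, 0.2 mM EDTA, 10 mM magnesium acetate, 300 μM peptide substrate and 33P-ATP. Stopped with 0.5% phosphoric acid; filter-bound label counted by scintillation. IC50 reported as ranges; NUAK1 and Aurora A served as counter-screens.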

Another test deals with T2, Aurora A (Homo sapiens, UniProt O14965).
T2 sequence (O14965 1-403): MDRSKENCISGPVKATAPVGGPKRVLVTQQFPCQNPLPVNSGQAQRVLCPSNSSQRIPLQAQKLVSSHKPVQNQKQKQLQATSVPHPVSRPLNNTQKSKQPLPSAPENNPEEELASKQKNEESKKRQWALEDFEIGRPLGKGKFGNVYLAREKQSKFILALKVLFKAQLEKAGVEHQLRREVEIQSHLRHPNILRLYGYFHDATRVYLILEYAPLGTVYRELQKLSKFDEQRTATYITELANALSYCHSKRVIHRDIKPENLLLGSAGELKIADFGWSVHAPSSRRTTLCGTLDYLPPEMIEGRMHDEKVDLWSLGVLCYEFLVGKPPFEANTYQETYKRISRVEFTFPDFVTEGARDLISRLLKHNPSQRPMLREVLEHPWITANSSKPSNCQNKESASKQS
Briefly: Counter-screen against Aurora A. As to conditions: read-out: AUR-A (IC50). Summed up:
as §1

In the next test the target is T3, NUAK1 (Homo sapiens, UniProt O60285).
T3 sequence (O60285 1-661): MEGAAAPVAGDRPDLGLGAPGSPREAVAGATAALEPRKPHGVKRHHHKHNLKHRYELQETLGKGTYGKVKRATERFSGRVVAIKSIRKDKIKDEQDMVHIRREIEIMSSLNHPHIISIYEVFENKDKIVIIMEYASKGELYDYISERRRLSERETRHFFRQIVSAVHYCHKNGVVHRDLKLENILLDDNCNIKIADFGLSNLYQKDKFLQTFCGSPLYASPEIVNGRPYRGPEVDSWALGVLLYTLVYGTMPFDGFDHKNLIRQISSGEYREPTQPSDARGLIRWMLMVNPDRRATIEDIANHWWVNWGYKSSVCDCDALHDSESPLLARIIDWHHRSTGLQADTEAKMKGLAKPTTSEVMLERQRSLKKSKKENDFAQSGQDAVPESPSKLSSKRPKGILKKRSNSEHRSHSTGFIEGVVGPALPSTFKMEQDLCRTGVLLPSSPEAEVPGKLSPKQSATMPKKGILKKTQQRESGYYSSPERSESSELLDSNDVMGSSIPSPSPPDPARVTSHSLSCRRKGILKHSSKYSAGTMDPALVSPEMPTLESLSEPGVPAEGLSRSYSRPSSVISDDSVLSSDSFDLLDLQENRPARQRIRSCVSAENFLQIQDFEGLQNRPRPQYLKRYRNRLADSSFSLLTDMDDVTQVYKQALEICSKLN
Briefly: Counter-screen against NUAK1. Summed up:
as §1
Background: A counterscreen serves to expose hits that act by an unwanted route or on another target.

These results are taken from US12643886B2 (Ontario Institute for Cancer Research (OICR), priority 2021, dated 2026).

Molecules are shown by their SMILES. pIC50: −log10 of the molar value.

For the compound `CC1(C)CN(c2ccc(Nc3ncc(C(F)(F)F)c(Nc4cccc5c4C(=O)NC5)n3)c(OC(F)F)c2)CCN1` [Compound I-65, 7-((2-((2-(difluoromethoxy)-4-(3,3-dimethylpiperazin-1-yl)phenyl)amino)-5-(trifluoromethyl)pyrimidin-4-yl)amino)isoindolin-1-one], the negative-log IC50 (pIC50) (as a rule, the IC50 on a negative log10 scale, so that one unit is a factor of ten) at NUAK2 (h) was 8.00 to 10.00; on Aurora A, 6.00 to 7.00; on NUAK1, 6.00 to 7.00.

As to `O=C1NCc2cccc(Nc3nc(Nc4ccc(N5C[C@@H]6C[C@H]5CN6)cc4OC(F)F)ncc3Cl)c21` [Compound I-66, 7-((2-((4-((1S,4S)-2,5-diazabicyclo[2.2.1]heptan-2-yl)-2-(difluoromethoxy)phenyl)amino)-5-chloropyrimidin-4-yl)amino)isoindolin-1-one], the pIC50 on NUAK2 (h) is 8.00 to 10.00; at Aurora A it was 6.00 to 7.00; against NUAK1, 7.00 to 7.96.

For the compound `O=C1NCc2cccc(Nc3nc(Nc4ccc(N5CCC(N6CCNCC6)CC5)cc4OC(F)F)ncc3Cl)c21` [Compound I-67, 7-((5-chloro-2-((2-(difluoromethoxy)-4-(4-(piperazin-1-yl)piperidin-1-yl)phenyl)amino)pyrimidin-4-yl)amino)isoindolin-1-one], the figures for the negative logarithm of the IC50 (pIC50) on NUAK2 (h), at Aurora A and at NUAK1 were 8.00 to 10.00, 6.00 to 7.00 and 7.00 to 7.96, respectively.

Regarding `COc1nc(N2CCN(C)CC2)ccc1Nc1ncc(C(F)(F)F)c(Nc2cccc3c2C(=O)NC3)n1` [Compound I-68, 7-((2-((2-methoxy-6-(4-methylpiperazin-1-yl)pyridin-3-yl)amino)-5-(trifluoromethyl)pyrimidin-4-yl)amino)isoindolin-1-one], the pIC50 at NUAK2 (h) was 8.00 to 10.00; at Aurora A, 6.00 to 7.00; against NUAK1, 7.00 to 7.96.

For `CN1CCCN(C2CCN(c3ccc(Nc4ncc(C(F)(F)F)c(Nc5cccc6c5C(=O)NC6)n4)c(OC(F)F)c3)CC2)CC1` [Compound I-69, 7-((2-((2-(difluoromethoxy)-4-(4-(4-methyl-1,4-diazepan-1-yl)piperidin-1-yl)phenyl)amino)-5-(trifluoromethyl)pyrimidin-4-yl)amino)isoindolin-1-one], the pIC50 on NUAK2 (h) was 8.00 to 10.00; on Aurora A it was 6.00 to 7.00; against NUAK1 it was 7.00 to 7.96.

Regarding `O=C1NCc2cccc(Nc3nc(Nc4ccc(N5[C@@H]6CC[C@H]5CNC6)cc4OC(F)F)ncc3C(F)(F)F)c21` [Compound I-70, 7-((2-((4-((1R,5S)-3,8-diazabicyclo[3.2.1]octan-8-yl)-2-(difluoromethoxy)phenyl)amino)-5-(trifluoromethyl)pyrimidin-4-yl)amino)isoindolin-1-one], the negative-log IC50 (pIC50) was 8.00 to 10.00 at NUAK2 (h), 6.00 to 7.00 at Aurora A and 7.00 to 7.96 against NUAK1.

For `O=C1NCc2cccc(Nc3nc(Nc4ccc(N5C[C@H]6C[C@@H]5CN6)cc4OC(F)F)ncc3C(F)(F)F)c21` [Compound I-71, 7-((2-((4-((1R,4R)-2,5-diazabicyclo[2.2.1]heptan-2-yl)-2-(difluoromethoxy)phenyl)amino)-5-(trifluoromethyl)pyrimidin-4-yl)amino)isoindolin-1-one], the negative-log IC50 (pIC50) is 8.00 to 10.00 on NUAK2 (h), 6.00 to 7.00 at Aurora A and 7.00 to 7.96 against NUAK1.

As for `O=C1NCc2cccc(Nc3nc(Nc4ccc(N5C[C@H]6C[C@@H]5CN6)cc4OC(F)F)ncc3Cl)c21` [Compound I-72, 7-((2-((4-((1R,4R)-2,5-diazabicyclo[2.2.1]heptan-2-yl)-2-(difluoromethoxy)phenyl)amino)-5-chloropyrimidin-4-yl)amino)isoindolin-1-one], the negative logarithm of the IC50 (pIC50) at NUAK2 (h) was 8.00 to 10.00; on Aurora A it was 6.00 to 7.00; on NUAK1 it was 7.00 to 7.96.

Take `CC(C)N1C[C@@H]2C[C@H]1CN2c1ccc(Nc2ncc(C(F)(F)F)c(Nc3cccc4c3C(=O)NC4)n2)c(OC(F)F)c1` [Compound I-73, 7-((2-((2-(difluoromethoxy)-4-((1S,4S)-5-isopropyl-2,5-diazabicyclo[2.2.1]heptan-2-yl)phenyl)amino)-5-(trifluoromethyl)pyrimidin-4-yl)amino)isoindolin-1-one]: the pIC50 was 8.00 to 10.00 at NUAK2 (h), 6.00 to 7.00 on Aurora A and 8.00 to 10.00 at NUAK1.

As to `O=C1NCc2cccc(Nc3nc(Nc4ccc(N5CCCNCC5)cc4OC(F)F)ncc3Cl)c21` [Compound I-74, 7-((2-((4-(1,4-diazepan-1-yl)-2-(difluoromethoxy)phenyl)amino)-5-chloropyrimidin-4-yl)amino)isoindolin-1-one], the negative-log IC50 (pIC50) at NUAK2 (h) is 8.00 to 10.00; on Aurora A it was 6.00 to 7.00; at NUAK1, 7.00 to 7.96.

Regarding `O=C1NCc2cccc(Nc3nc(Nc4ccc(N5[C@@H]6CC[C@H]5CNC6)cc4OC(F)F)ncc3Cl)c21` [Compound I-75, 7-((2-((4-((1R,5S)-3,8-diazabicyclo[3.2.1]octan-8-yl)-2-(difluoromethoxy)phenyl)amino)-5-chloropyrimidin-4-yl)amino)isoindolin-1-one], the negative-log IC50 (pIC50) on NUAK2 (h), on Aurora A and against NUAK1 was 8.00 to 10.00 throughout.

As for `O=C1NCc2cccc(Nc3nc(Nc4ccc(N5C[C@H]6CNC[C@H]6C5)cc4OC(F)F)ncc3Cl)c21` [Compound I-76, 7-((5-chloro-2-((2-(difluoromethoxy)-4-((3aR,6aS)-hexahydropyrrolo[3,4-c]pyrrol-2(1H)-yl)phenyl)amino)pyrimidin-4-yl)amino)isoindolin-1-one], the negative logarithm of the IC50 (pIC50) was 8.00 to 10.00 at NUAK2 (h), 6.00 to 7.00 at Aurora A and 7.00 to 7.96 against NUAK1.

`O=C1NCc2cccc(Nc3nc(Nc4ccc(N5CCC6(CCNCC6)CC5)cc4OC(F)F)ncc3Cl)c21` [Compound I-77, 7-((5-chloro-2-((2-(difluoromethoxy)-4-(3,9-diazaspiro[5.5]undecan-3-yl)phenyl)amino)pyrimidin-4-yl)amino)isoindolin-1-one]: the pIC50 at NUAK2 (h) was 7.00 to 7.96; on Aurora A, 6.00 to 7.00; at NUAK1 it was 7.00 to 7.96.

As to `CCN1CCN(c2ccc(Nc3ncc(C(F)(F)F)c(Nc4cccc5c4C(=O)NC5)n3)c(OC(F)F)c2)CC1` [Compound I-78, 7-((2-((2-(difluoromethxoy)-4-(4-ethylpiperazin-1-yl)phenyl)amino)-5-(trifluoromethyl)pyrimidin-4-yl)amino)isoindolin-1-one], the negative logarithm of the IC50 (pIC50) at NUAK2 (h) was 8.00 to 10.00; at Aurora A, 6.00 to 7.00; on NUAK1, 7.00 to 7.96.

For `CN1CCN(c2ccc(Nc3ncc(C(F)(F)F)c(Nc4cccc5c4C(=O)NC5)n3)c(OC(F)F)c2)CC1` [Compound I-79, 7-((2-((2-(difluoromethxoy)-4-(4-methylpiperazin-1-yl)phenyl)amino)-5-(trifluoromethyl)pyrimidin-4-yl)amino)isoindolin-1-one], the pIC50 at NUAK2 (h) is 8.00 to 10.00; at Aurora A it was 6.00 to 7.00; on NUAK1 it was 7.00 to 7.96.

With `CCN1CCN(C2CCN(c3ccc(Nc4ncc(Cl)c(Nc5cccc6c5C(=O)NC6)n4)c(OC(F)F)c3)CC2)CC1` [Compound I-80, 7-((5-chloro-2-((2-(difluoromethoxy)-4-(4-(4-ethylpiperazin-1-yl)piperidin-1-yl)phenyl)amino)pyrimidin-4-yl)amino)isoindolin-1-one], the negative logarithm of the IC50 (pIC50) at NUAK2 (h) was 7.00 to 7.96; on Aurora A, 6.00 to 7.00; at NUAK1 it was 7.00 to 7.96.
